What was measured:
[1] = Viability (propidium iodide staining), A375; assay type: cell-based; conditions: human, A375 cells (melanoma), 500 nM
Experimental: (§1) Propidium iodide (PI) cannot normally cross the cell membrane; it is thus excluded by viable cells but not from dying or dead cells, having a damaged membrane, where it intercalates into double-stranded nucleic acids and fluoresces when excited at 488 nm.
(§2) The cells are pelleted by gentle centrifugation 1200 rpm/5 min/4° C., then the supernatant is discarded and replaced by 1 mL of fresh medium. One hundred microliters of propidium iodide (40 μg/mL) are added to 400 μL of the cell suspension in a FACS tube and viability is measured by flow cytometry as the percentage of cells whose fluorescence recorded on FL-3 channel is comprised between 0 and 2.
(§3) Viability and cell cycle profile, tested with compound (01), at 500 nM: […]

[2] = test system: U937; assay: Cell cycle analysis, U937; assay type: cell-based, human; conditions: 500 nM
Experimental: (§4) The cells are pelleted by gentle centrifugation 1200 rpm/5 min/4° C., then the supernatant is discarded and the cells are fixed with 1 mL of PBS/Ethanol 70% overnight at −20° C. The tubes are then centrifuged during 5 minutes at 1200 rpm and the supernatant is removed. The pellet is then re-suspended in 450 μL of PBS before 50 μL of RNAse (1 mg/mL) and 5 μL of propidium iodide (2 mg/mL) are added. Each tube is left 30 minutes at 37° C. and immediately analysed by flow cytometry after incubation.
(§5) A biparametric dot plot representation FL3 peak vs FL3 integer is plotted and the cells located on the diagonal are gated and analysed on a histogram representing the number of cells as a function of the FL3 peak.
(§6) To assess the relative position of cursors defining relative proportion of cells in subG1, G1, S or G2 phase of the cell cycle, G1 and G2 peaks are to be defined first:
(§7) The G1 peak is defined as the major peak in absence of treatment (generally X=200);
(§8) The G2 peak is centered on the value which is twice the value of the G1 peak (generally X=400).
(§9) Cells in subG1 phase are plotted in the part of the histogram preceding the G1 peak (generally X<200) and cells in S phase are enclosed in the area between the G1 and G2 peaks.
(§10) On this graphic, subG1, G1, S and G2/M phases of the cell cycle can thus be defined.
as §3

[3] = Viability (propidium iodide staining), NCI-H460; assay type: cell-based; conditions: human, NCI-H460 cells (lung), NCI-H460 lung (NSCLC), 500 nM
Experimental: as §1, §2, §3

[4] = test system: NCI-H460; assay: Cell cycle analysis, NCI-H460; assay type: cell-based, human; conditions: 500 nM
Experimental: as §4, §5, §6, §7, §8, §9, §10, §3

[5] = test system: CEM; assay: Cell cycle analysis, CEM; assay type: cell-based; conditions: 500 nM
Experimental: as §4, §5, §6, §7, §8, §9, §10, §3

[6] = test system: Jurkat; assay: Cell cycle analysis, Jurkat; assay type: cell-based; conditions: 500 nM
Experimental: as §4, §5, §6, §7, §8, §9, §10, §3

[7] = test system: human lung cancer NCI-H460 cells (NSCLC); assay: Inhibition of tumor growth in vivo, NCI-H460 xenograft; set-up: species or system Swiss nude mice
Experimental: FIG. 2: Inhibition of tumor growth in vivo.
This graph represents the growth of tumor size (by reference to the initial size of the tumor) grafted to mice receiving different treatments during 15 days.
Rhombus: evolution of the growth of the tumor measured in mice receiving the vehicle (without active ingredient) intra-peritoneally (2QD)
Triangle: evolution of the growth of the tumor measured in mice receiving the compound (01) intra-peritoneally at a dosage of 18 mg/kg (2QD).
Circle: evolution of the growth of the tumor measured in mice receiving taxol intra-peritoneally at 8 mg/kg (Q3D×5; d1; d4; d7; d10; d13).
Cross: evolution of the growth of the tumor measured in mice receiving a combination of compound (01) at a dosage of 18 mg/kg 2QD and taxol at a dosage of 8 mg/kg Q3D×5 intra-peritoneally.
For this experiment, Swiss nude mice received a subcutaneous xenograft of 5×10^6 human lung cancer NCI-H460 cells (NSCLC). The percentage of growth of the tumor size versus tumor size at the beginning of treatment is plotted during 15 days for mice receiving four different treatments (12 mice per group of treatment).
The first treatment corresponds to a control. The mice were given the vehicule intra-peritoneally, 2QD.
Composition of the vehicule: 10% DMSO; 10% PEG-400; 30% (EtOH/Cremophor (1/2)); 50% sterile water.
The second treatment corresponds to the administration of a compound of the invention, compound (01), at a dosage of 18 mg/kg 2QD.
The third treatment corresponds to the administration of Taxol at a dosage of 8 mg/kg Q3D×5; d1; d4; d7; d10; d13.
The fourth treatment corresponds to the administration of a combination of compound (01) at a dosage of 18 mg/kg 2QD and of Taxol at a dosage of 8 mg/kg Q3D×5.

[8] = test system: lymphoid and myeloid tumor cells; assay: Viability and cell cycle profile, conclusion for lymphoid and myeloid tumor cells; assay type: cell-based; conditions: 500 nM; apoptotic cell cycle profile
Experimental: as §1, §2, §4, §3

## COc1cc(NC(=S)NC(=O)/C=C/c2ccco2)ccc1-c1cc2ccccc2oc1=O [Compound 01, (2E)-3-(2-furyl)-N-({[3-methoxy-4-(2-oxo-2H-chromen-3-yl)phenyl]amino}carbonothioyl)acrylamide]
[1]; 48 h
  viability at 48 h, 0.5 µM: 65%
[1]; 72 h
  viability at 72 h, 0.5 µM: 35%
[2]
  Cell cycle profile - 72 h: Strong sub-G1
[3]; 48 h
  viability at 48 h, 0.5 µM: 80%
[3]; 72 h
  viability at 72 h, 0.5 µM: 80%
[4]; G2/M phase fraction
  Cell cycle profile - 72 h: G2/M accumulation
[4]; sub-G1 fraction
  Cell cycle profile - 72 h: Strong sub-G1
[5]
  Cell cycle profile - 72 h: Strong sub-G1
[6]
  Cell cycle profile - 72 h: Strong sub-G1
[7]; 18 mg/kg 2QD intra-peritoneally, 15 days
  Growth of lung tumor xenograft: inhibits the growth
[7]; NCI-H460 xenograft
  Dose dependence of the tumor growth inhibition: dose-dependent
[7]; compound (01) 18 mg/kg 2QD plus taxol 8 mg/kg Q3D×5, intra-peritoneally
  Efficacy in reducing the tumour growth when combined with taxol: enhanced
[8]
  Effect on lymphoid and myeloid tumor cells: cytotoxic effect

From patent US20090203685A1, “ANTI-PROLIFERATIVE COMPOUNDS FROM A 3-ARYL-COUMARINE OR 3-ARYL-QUINOLIN-2-ONE AND USES THEREOF” (EOS (ETHICAL ONCOLOGY SCIENCE) S.P.A., priority 2006, published 2009)
